Experimental data taken from PubChem BioAssay (NCI).
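Where inhibition never reached the appropriate level, the endpoint shown equals the highest concentration tested. Otherwise, values were interpolated linearly from a five-concentration, 48-hour dose response in 96-well plates. GI50 is the concentration that inhibits growth by half. TGI denotes the concentration required for complete inhibition of growth.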

Assays:
Assay in all cases: DTP human tumour cell line panel, 48 h
NCI-H522 lung = tested on: NCI-H522 lung
SK-OV-3 ovarian = tested on: SK-OV-3 ovarian
TK-10 renal = tested on: TK-10 renal
EKVX NSCLC = tested on: EKVX NSCLC
SR leukemia = tested on: SR leukemia
HCT-15 colon = tested on: HCT-15 colon
OVCAR-3 ovarian = tested on: OVCAR-3 ovarian
MDA-N = tested on: MDA-N
T-47D breast = tested on: T-47D breast
U251 CNS = tested on: U251 CNS

SMILES	TGI (NCI-H522 lung)	TGI (SK-OV-3 ovarian)	TGI (TK-10 renal)	TGI (EKVX NSCLC)	TGI (SR leukemia)	TGI (HCT-15 colon)	TGI (OVCAR-3 ovarian)	TGI (MDA-N)	TGI (T-47D breast)	TGI (U251 CNS)	GI50 (T-47D breast)	GI50 (NCI-H522 lung)	GI50 (U251 CNS)	GI50 (SK-OV-3 ovarian)	GI50 (TK-10 renal)	GI50 (EKVX NSCLC)	GI50 (SR leukemia)	GI50 (HCT-15 colon)	GI50 (OVCAR-3 ovarian)
COc1cc(CNc2nc3c(NC(C)=O)cc(C(F)(F)F)cc3nc2-c2ccccc2)cc(OC)c1OC	> 100 µM	> 100 µM	> 100 µM	> 100 µM	> 100 µM	> 100 µM	> 100 µM	–	–	–	–	–	–	–	–	–	–	–	–
COc1ccc(/C=C2\N=C3N(Cc4ccccc4)C=C(N)N3C2=O)cc1	> 100 µM	> 100 µM	> 100 µM	> 100 µM	–	> 100 µM	> 100 µM	> 100 µM	> 100 µM	92.3 µM	–	–	–	–	–	–	–	–	–
CCOC(=O)CCC(NC(=O)c1ccc(NCc2ccc3nc(OC)c(OC)nc3c2)c2ccccc12)C(=O)OCC (stereo unspecified)	> 100 µM	> 100 µM	> 100 µM	> 100 µM	–	> 100 µM	> 100 µM	> 100 µM	> 100 µM	> 100 µM	–	–	–	–	–	–	–	–	–
N#Cc1nc(-c2ccsc2)oc1N	–	> 100 µM	> 100 µM	> 100 µM	> 100 µM	> 100 µM	–	> 100 µM	–	> 100 µM	–	–	–	–	–	–	–	–	–
Nc1ncnc2c1ncn2C1C(O)C=C(CO)C1O (stereo unspecified)	–	> 625 µM	–	–	–	> 625 µM	> 625 µM	–	–	–	–	–	–	–	–	–	–	–	–
CC(C)(C)C(=O)C(N)C(=O)C(C)(C)C	> 100 µM	> 100 µM	> 100 µM	–	> 100 µM	> 100 µM	–	> 100 µM	> 100 µM	> 100 µM	–	–	–	–	–	–	–	–	–
CC(C)NC(=O)OCCN=C1c2ccccc2C(Br)C(Br)c2ccccc21 (stereo unspecified)	3.52 µM	> 62.9 µM	21.6 µM	59.2 µM	–	> 69.8 µM	35.6 µM	28.9 µM	18.4 µM	25.5 µM	–	–	–	–	–	–	–	–	–
CC1=NN(C(=O)CC(=O)Nc2cccc(C)c2)C(=O)C1N=Nc1ccc(C(=O)O)cc1 (stereo unspecified)	> 100 µM	–	> 100 µM	> 100 µM	> 100 µM	> 100 µM	> 100 µM	> 100 µM	> 100 µM	> 100 µM	–	–	–	–	–	–	–	–	–
N#Cc1cc2c(n(C3OC(CO)C(O)C(O)C3O)c1=S)CCC2 (stereo unspecified)	> 100 µM	–	> 100 µM	–	> 100 µM	> 100 µM	> 100 µM	> 100 µM	> 100 µM	> 100 µM	–	–	–	–	–	–	–	–	–
CCOC(=O)CCC(C(=O)OCC)n1nnc2cc(Nc3c(C)[n+]([O-])c4cc(Cl)ccc4[n+]3[O-])ccc21 (stereo unspecified)	> 100 µM	> 100 µM	> 100 µM	71.9 µM	–	> 100 µM	> 100 µM	> 100 µM	> 100 µM	> 100 µM	–	–	–	–	–	–	–	–	–
Oc1ccccc1/C=N/c1nc(-c2ccccc2)cs1	62.6 µM	> 100 µM	> 100 µM	> 100 µM	79.5 µM	> 100 µM	> 100 µM	–	> 100 µM	> 100 µM	> 100 µM	25.4 µM	28.5 µM	> 100 µM	33 µM	> 100 µM	24.3 µM	29.4 µM	30 µM
O=c1[nH]c(NCCCCCO)nc2nc[nH]c12	> 100 µM	–	> 100 µM	> 100 µM	> 100 µM	> 100 µM	> 100 µM	> 100 µM	> 100 µM	> 100 µM	–	–	–	–	–	–	–	–	–
C/C(=C\C(=O)O)C(=O)N(C)c1ccccc1I	–	> 100 µM	–	> 100 µM	> 100 µM	> 100 µM	> 100 µM	> 100 µM	> 100 µM	> 100 µM	–	–	–	–	–	–	–	–	–
O=[N+]([O-])/C=C/c1cn(CCCCCCCCn2cc(/C=C/[N+](=O)[O-])c3ccccc32)c2ccccc12	> 10 µM	> 10 µM	> 10 µM	> 10 µM	> 10 µM	> 10 µM	> 10 µM	> 10 µM	> 10 µM	–	–	–	–	–	–	–	–	–	–
CC1CC(C)(C)CC(OCCN2CCCCC2)(c2ccccc2)C1 (stereo unspecified)	21.6 µM	28.3 µM	26.7 µM	19.5 µM	20.4 µM	27.5 µM	22.5 µM	–	29.5 µM	25.5 µM	–	–	–	–	–	–	–	–	–
O=c1ccc(=O)c2c1c1[nH]c3ccccc3c1c1c(=O)c3ccccc3c(=O)c21	> 10 µM	> 10 µM	> 10 µM	> 10 µM	> 10 µM	> 10 µM	> 10 µM	–	> 10 µM	> 10 µM	–	–	–	–	–	–	–	–	–
Cc1cc(S(=O)(=O)NC2=NCc3c(F)cccc3N2)c(S)cc1Cl	> 100 µM	–	> 100 µM	> 100 µM	> 100 µM	> 100 µM	> 100 µM	> 100 µM	> 100 µM	> 100 µM	–	–	–	–	–	–	–	–	–
Cc1cc(Br)c(O)c(-c2cscn2)c1	–	> 100 µM	42 µM	96.1 µM	–	18.4 µM	> 100 µM	–	–	–	–	–	–	–	–	–	–	–	–
FC(F)(Sc1ncccn1)c1nc2ccccc2o1	> 100 µM	> 100 µM	> 100 µM	–	> 100 µM	> 100 µM	> 100 µM	> 100 µM	> 100 µM	> 100 µM	–	–	–	–	–	–	–	–	–
N#CC(c1cc(Cl)ncn1)c1nc2cc(C(F)(F)F)ccc2s1 (stereo unspecified)	3.61 µM	53.7 µM	> 100 µM	32.3 µM	–	13.6 µM	17.4 µM	15.7 µM	> 100 µM	17.1 µM	–	–	–	–	–	–	–	–	–
CCN(CCCl)c1cc(CN(C)C)cc(NC(=O)c2ccc(C(=O)Nc3cccc(N(CCCl)NN)c3)cc2)c1	–	13.3 µM	0.618 µM	–	> 100 µM	4.89 µM	–	0.169 µM	–	–	–	–	–	–	–	–	–	–	–
COc1cc2c(cc1OCCN1CCN(CCOc3cc4c(cc3OC)C(=O)N3CCC[C@H]3C=N4)CC1)N=C[C@@H]1CCCN1C2=O	> 82.1 µM	> 100 µM	87.8 µM	> 100 µM	–	> 100 µM	66.8 µM	–	> 100 µM	> 89.7 µM	–	–	–	–	–	–	–	–	–
CC(C)(C)[C@H]1NC(=O)CN1C(=O)OCc1ccccc1	> 100 µM	> 100 µM	> 100 µM	> 100 µM	> 100 µM	> 100 µM	–	–	> 100 µM	> 100 µM	–	–	–	–	–	–	–	–	–
CC1(O)CC23CC(O)C4(O)C(CC(O)C4(C)C)C(C)(O)C2CCC1C3O (stereo unspecified)	> 100 µM	> 100 µM	> 100 µM	> 100 µM	> 100 µM	> 100 µM	–	–	> 100 µM	> 100 µM	–	–	–	–	–	–	–	–	–
